For test [1], the system named is homodimer formation of STAT3. Nature of the test: Fluorescent focus detection of STAT3 homodimer formation after IL-6, HEK293 cells constitutively expressing PB1-mAG1-STAT3 (Example 12). The test is classed as cell-based. Particulars: 100 ng/ml, 50 minutes; none before addition. On the procedure: HEK293 cells were selected as cells into which the expression vector prepared above was introduced. The cells were first cultured in DMEM (high glucose) supplemented with 10% FBS and 1% penicillin-streptomycin. Then, on the day before the introduction of the expression vector, these cells were seeded onto a 35-mm dish, and cultured in 1.5 ml of the culture solution. […] Thereafter, the mixture solution of the expression vector was added to the cultured cells. After that, G418 was added thereto at a concentration of 500 μg/mL, and further cultured for one week. Next, viable cells were detached using a trypsin solution, diluted with a culture solution containing G418 (500 μg/ml), and then cultured in a 96-well plate at 0.5 cells/well. Subsequently, cells which formed single colonies were cultured to expand.
Then, the cells were observed using an IX-71 inverted fluorescence microscope (the magnification of the objective lens: 20×), a U-MGFPHQ filter, and an ORCA-ER digital camera. The homodimer formation of STAT3 was induced by adding Human Recombinant IL-6 (manufactured by R&D SYSTEMS, INC.) to the buffer to the final concentration of 100 ng/ml.

Test [2] deals with T1, FKBP12 mutant homodimer formation (Homo sapiens, UniProt P62942, F37V).
T1 construct: expressed in transfected cells; host or cells: HEK293
Description: Reversible FKBP12 mutant homodimer formation in HEK293 cells constitutively expressing PB1-hmAG1-FKBP12 mutant, spot detection image analysis (Example 2). It counts as cell-based. On the procedure:
The pPB1-hmAG1-FKBP12 mutant was introduced into HEK293 cells, and cells constitutively expressing the fusion protein according to the present invention (PB1-hmAG1-FKBP12 mutant) were prepared. Specifically, on the day before the introduction of the expression vector, HEK293 cells were seeded onto a 35-mm dish (manufactured by BD Falcon), and cultured in 1.5 mL of the culture solution. Then, 1 μg of the pPB1-hmAG1-FKBP12 mutant was diluted with 100 μL of OptiMEM (manufactured by Life Technologies Corporation), and 10 μL of PolyFect (registered trademark) Transfection Reagent (manufactured by QIAGEN N.V.) was added thereto and then stirred. […] Thereafter, G418 was added thereto at a concentration of 500 μg/mL, and further cultured for one week. After that, viable cells were detached using a trypsin solution, diluted with a culture solution containing G418 (500 μg/ml), and then cultured in a 96-well plate at 0.5 cells/well. […]
The images captured over time by the above method were analyzed using spot detection (spot detector) of an icy image analysis program (icy.bioimageanalysis.org/). Moreover, from the images, a graph was created in which the X axis represents the operation time (minutes), and the Y axis represents a numerical value of a total fluorescence intensity in regions of the fluorescent foci within boxes drawn around the regions by lines.
Target sequence in this assay (P62942 whole entry F37V): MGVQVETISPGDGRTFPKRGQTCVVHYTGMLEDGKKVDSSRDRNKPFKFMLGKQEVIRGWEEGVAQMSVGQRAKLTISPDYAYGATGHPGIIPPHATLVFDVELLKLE

For test [3], the target named is T1, FKBP12 mutant homodimer formation. Description: FKBP12 mutant homodimer formation with SAM domain of Tankyrase 1 as multimerizable protein, HEK293 cells (Example 9). It counts as cell-based. Particulars: 500 nM, 3 hours, room temperature; Tankyrase-mAG1-FKBP12 mutant. On the procedure:
HEK293 cells were cultured in DMEM (high glucose) supplemented with 10% FBS and 1% penicillin-streptomycin. Then, on the day before the transfection, the cells were seeded onto an 8-well chamber slide. The cells were cultured in 200 μL of the culture solution per well. Subsequently, a DNA solution was prepared by mixing 200 ng of the plasmid with 10 μL of OptiMEM, and 0.8 μl of Fugene HD (manufactured by Promega Corporation) was added thereto and then stirred. The resultant was further mixed with 100 μl of the culture solution, then added to the HEK293 cells, and cultured for 20 hours.
After the transfection treatment, the HEK293 cells were observed using an IX-81 inverted microscope and an ORCA-Flash 4.0 digital camera. A U-MNIBA3 filter was used for the observation. The homodimer formation of the FKBP12 mutant was induced by adding 500 nM B/B Homodimerizer to the medium. In addition, after the drug was added, the resultant was left standing at room temperature. The cells were observed after 3 hours elapsed.
Target sequence in this assay (P62942 2-108 F37V limits assumed): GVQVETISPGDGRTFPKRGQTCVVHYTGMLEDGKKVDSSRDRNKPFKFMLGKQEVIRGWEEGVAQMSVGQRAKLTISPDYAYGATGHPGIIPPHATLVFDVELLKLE

Test [4] shares this target. Description: Comparative Example 1: method of PTL 4 (PB1-FKBP12 mutant and AG-FKBP12 mutant) for FKBP12 mutant homodimer formation in HEK293 cells. It counts as cell-based. As to conditions: method of PTL 4, 66 minutes after the drug addition. On the procedure:
In the detection system described in PTL 4, the PB1 domain of the p62 protein was selected as the association-inducing protein. Moreover, AG was selected as the fluorescent multimerizable protein, and a DNA encoding humanized-codon AG (hAG) was used.
Further, an expression vector (pPB1-FKBP12 mutant) encoding a fusion protein composed of the FKBP12 mutant fused to the C-terminus of the PB1 domain of the p62 protein was prepared as follows. Specifically, a DNA having the nucleotide sequence of SEQ ID NO: 31 was artificially synthesized which contained restriction enzyme sites at either end of a DNA having a nucleotide sequence encoding the FKBP12 mutant (the DNA encoding a protein having the amino acid sequence of SEQ ID NO: 32). Then, the obtained synthetic DNA was cleaved with EcoRI and XhoI, and inserted into pAsh-MCLinker (manufactured by MEDICAL & BIOLOGICAL LABORATORIES CO., LTD.) having been treated with a combination of the same restriction enzymes. Thus, a pPB1-FKBP12 mutant was constructed. […]
Further, 100 ng of each of the expression vectors thus constructed was mixed, that is, 200 ng of these were mixed in total, and fluorescent foci in cells before and after the drug addition were detected according to the same methods as <Cell Culturing and Transfection> and <Observation of Cells> described in Example 1.
Target sequence in this assay (P62942 2-108 F37V limits assumed): as above

Test [5] shares this target. Description: FKBP12 mutant homodimer formation with DG1 or mCherry as fluorescent protein, HEK293 cells (Example 8). As to conditions: 500 nM, 1, 2 and 3 hours, room temperature; PB1-DG1-FKBP12 mutant and PB1-mCherry-FKBP12 mutant. It counts as cell-based. The text has this: To express the PB1-hDG1-FKBP12 mutant or the PB1-mCherry-FKBP12 mutant in cells, the vectors encoding these fusion proteins were introduced into HEK293 cells by the same method as that described in Example 4.
After the transfection treatment, the HEK293 cells were observed using an IX-81 inverted microscope and an ORCA-Flash 4.0 digital camera. A U-MNIBA3 filter (manufactured by Olympus Corporation) and a U-MWIG3 filter (manufactured by Olympus Corporation) were used respectively for the DG1 and mCherry observations. The homodimer formation of the FKBP12 mutant was induced by adding 500 nM B/B Homodimerizer. After the drug addition, the resultant was left standing at room temperature. The cells were observed after 1, 2, and 3 hours elapsed. FIGS. 22 and 23 show images before the drug addition and 1, 2, and 3 hours after the addition.
Target sequence in this assay (P62942 2-108 F37V limits assumed): as above

For test [6] the target is unchanged. Nature of the test: Fluorescent focus detection of FKBP12 mutant homodimer formation, PB1-mAG1-FKBP12 mutant transiently expressed in HEK293 cells (Example 1). As to conditions: 500 nM. The test is classed as cell-based. On the procedure:
Next, the pPB1-hmAG1-FKBP12 mutant prepared as described above was introduced into HEK293 cells, and the fusion protein according to the present invention was expressed in the cells. Specifically, first, HEK293 cells were cultured in DMEM (high glucose, manufactured by SIGMA ALDRICH CO.) supplemented with 10% FBS (manufactured by Equitech-Bio Inc.) and 1% penicillin-streptomycin (manufactured by Life Technologies Corporation). Then, on the day before the transfection, the HEK293 cells cultured in this manner were seeded onto an 8-well chamber slide (manufactured by Nunc A/S), and cultured in 200 μL of the culture solution per well. Subsequently, 100 ng of the pPB1-hmAG1-FKBP12 mutant was diluted with 10 μL of OptiMEM (manufactured by Life Technologies Corporation), and 0.4 μL of Turbofect Transfection Reagent (manufactured by Thermo Fisher Scientific Inc.) was added thereto and then stirred. Thereafter, the resultant was further mixed with 100 μL of the culture solution, then added to the HEK293 cells, and cultured for 20 hours.
After the transfection treatment, the HEK293 cells were observed using an IX-71 inverted fluorescence microscope (manufactured by Olympus Corporation, the magnification of the objective lens: 20×), a U-MGFPHQ filter (manufactured by Olympus Corporation), and an ORCA-ER digital camera (manufactured by Hamamatsu Photonics K. K.). […]
Target sequence in this assay (P62942 whole entry F37V): as the sequence (P62942 whole entry F37V) above

In test [7] the test system is homodimer formation of ERK2. Nature of the test: Fluorescent focus detection of ERK2 homodimer formation after EGF, serum-starved HEK293 cells (Example 11). The test is classed as cell-based. On the procedure:
HEK293 cells were selected as cells into which the expression vectors prepared above were introduced. The cells were first cultured in DMEM (high glucose) supplemented with 10% FBS (manufactured by Equitech-Bio Inc.) and 1% penicillin-streptomycin. Then, on the day before the introduction of the expression vectors, these cells were seeded onto a 35-mm dish, and cultured in 1.5 ml of the culture solution. […] Thereafter, each solution of the expression vectors was added to the cultured cells. The pERK2-hmAG1PB1 transfected cells were observed 20 hours after the vector introduction. To the pERK2-PB1-hmAG1 transfected cells, G418 was added at a concentration of 500 μg/mL, and further cultured for one week. After that, viable cells were detached using a trypsin solution, diluted with a culture solution containing G418 (500 μg/ml), and then cultured in a 96-well plate at 0.5 cells/well. Subsequently, cells which formed single colonies were cultured to expand.
Then, the cells were observed using an IX-71 inverted fluorescence microscope (the magnification of the objective lens: 20×), a U-MGFPHQ filter, and an ORCA-ER digital camera. The homodimer formation of ERK2 was induced by adding EGF (epidermal growth factor, manufactured by Sigma-Aldrich Co.) to the buffer to the final concentration of 50 ng/ml. FIGS. 26 and 27 show images before the EGF addition and 8 minutes after the addition.

Test [8] has as its system calmodulin and M13 peptide tetramer formation (H1 receptor, calcium ion). Particulars: 100 μM. On the procedure:
To express the fusion proteins in a combination of the following (A) or (B), the plasmid vectors prepared above were introduced into HeLaS3 cells by a method described below: • (A) Calumodulin-mAG1 and M13peptide-PB1; and • (B) Calumodulin-mUkG1 and M13peptide-PB1.
First, HeLaS3 cells were cultured in DMEM (low glucose) containing 10% FBS (manufactured by Equitech-Bio Inc.). Then, on the day before the transfection, the HeLaS3 cells were seeded onto a 35-mm glass base dish (manufactured by Asahi Glass Co., Ltd.). Subsequently, at the time of the transfection, the plasmids (1 μg+1 μg) were diluted with OptiMEM, and 10 μl of PolyFect(registered trademark) Transfection Reagent was added thereto and stirred. The resultant was further mixed with 600 μl of the culture solution, thereafter added to the HeLaS3 cells, and cultured for 22 hours.
Then, 100 μM histamine (manufactured by Wako Pure Chemical Industries, Ltd.) was added thereto, and fluorescence images were captured over time.

With “IL-6: Human Recombinant IL-6, manufactured by R&D SYSTEMS, INC.”, the fluorescent focus formation result in test [1] is listed as “fluorescent foci were observed in multiple cells”.

Regarding `CC[C@H](C(=O)N1CCCC[C@H]1C(=O)O[C@H](CCc1ccc(OC)c(OC)c1)c1cccc(OCC(=O)NCC(CNC(=O)COc2cccc([C@@H](CCc3ccc(OC)c(OC)c3)OC(=O)[C@@H]3CCCCN3C(=O)[C@@H](CC)c3cc(OC)c(OC)c(OC)c3)c2)CN(C)C)c1)c1cc(OC)c(OC)c(OC)c1` [B/B Homodimerizer], the fluorescent focus formation entry in test [2] (500 nM, 90 minutes after the B/B Homodimerizer addition) is “distinctive fluorescent foci were observed in multiple cells”; in test [3], “fluorescent focus formations attributable to the addition of the drug”; in test [4] it was “fluorescent foci were formed only in a few cells”; in test [5], “drug-addition dependent increases in fluorescent foci were observed”; in test [6] (38 minutes after the drug addition, none before addition), “fluorescent foci were observed in multiple cells”; in test [6] (76 minutes after the addition), “many cells which exhibited distinctive fluorescent foci were observed”. Besides, the “fluorescence intensity relative to that before the addition” value in test [2] (when formation of fluorescent foci started to be observed immediately after the B/B Homodimerizer addition) is given as 1.9 times.

As to “EGF: epidermal growth factor, manufactured by Sigma-Aldrich Co. (NSDSECPLSHDGYCLHDGVCMYIEALDKYACNCVVGYIGERCQYRDLKWWELR; UniProt P01133 971-1023, looked up)”, the fluorescent focus formation entry is “fluorescent foci were observed in multiple cells” in test [7] (50 ng/ml, 8 minutes, ERK2-mAG1-PB1 transient, none before addition) and “fluorescent foci indicating the homodimer formation of ERK2 were detected” in test [7] (8 minutes after EGF addition, cells constitutively expressing ERK2-PB1-hmAG1 (FIG. 27)).

With `NCCc1c[nH]cn1` [histamine], the fluorescent focus formation entry in test [8] (60 seconds after the ligand was added, Calmodulin-mAG1 or Calmodulin-mUkG1 with M13peptide-PB1) was “fluorescent focus formation was detected”. In test [8] (300 seconds after the ligand addition (FIG. 35)), the “extinction of fluorescent foci” value is “the fluorescent foci (assemblies) were extinguished”.

For the origin of these results see US10761085B2, “Method for determining a protein-protein interaction” (MEDICAL & BIOLOGICAL LABORATORIES CO., LTD., priority 2014, dated 2020).
